Data published in PubChem BioAssay AID1963427 (Molecular Pharmacology Branch, DTP, NCI, 2024).

Tested on: 317291-083-R-J1-PDC complex spheroid growth
Assay: Anticancer human tumor 317291-083-R-J1-PDC patient-derived soft tissue sarcoma cell line growth inhibition [Asc]
Settings: for IC50: curve of first compound; for viability, T/C: stronger effect = lower value
Procedure: Multicellular complex tumor spheroid response to apoptosis pathway targeting inhibitors Alrizomadlin, Pelcitoclax, and Dasminapant in combination with a variety of drugs and investigational agents in selected tumor cell lines
The MDM2 inhibitor alrizomadlin, the Bcl-2/Bcl-xL inhibitor pelcitoclax, and the IAPs inhibitor dasminapant were evaluated both individually and in combination with standard of care and investigational anticancer small molecules within a complex spheroid model of solid tumors. . Complex spheroids include a stromal component modeled by human endothelial cells (HUVEC) and fibroblasts modeled by human mesenchymal stem cells (MSCs). The concentration ranges selected for each drug and investigational agent were based upon clinically achievable concentrations if the clinical Cmax of the agent was known.
Compounds. The drugs and investigational agents: alrizomadlin (APG-115; NSC831270), pelcitoclax (APG-1252; NSC835773), dasminapant (APG-1387;NSC834197), TAK-243 (NSC785004), copanlisib (NSC809693), olaparib (NSC753686), talazoparib (NSC767125), cobimetinib (NSC 768068), eltanexor (KPT-8602, NSC 794443), abemaciclib (NSC 768073), sotorasib (NSC818433), adagrasib (NSC 831453), MRTX-1133 (NSC 836407), Iadademestat (ORY1001, NSC 806812), and RMC-4630 (NSC839698), were obtained from the NCI Developmental Therapeutics Program Chemical Repository. The FDA-approved anticancer drug set is available from the Developmental Therapeutics Program at https://dtp.cancer.gov/organization/dscb/obtaining/available plates.htm. […] The stock solutions were prepared in dimethyl sulfoxide (DMSO, Sigma-Aldrich, St. Louis, MO, cat. D2650) at 800-fold the tested concentration and stored at -70 degrees C prior to their use. All drugs and investigational agents were tested over a range starting from a high concentration at or near the clinical Cmax and decreasing in half-log increments. If the clinical Cmax for an agent had not been determined, the highest concentration tested was 10 microM.
The patient-derived cancer (PDC) cell lines include five colon adenocarcinomas: 186277-243-T-J2-PDC, 616215-338-R-J1-PDC, 439559-082-T-J2-PDC, 463943-066-T-J2-PDC, and 519858-162-T-J1-PDC; three pancreatic carcinomas: 323965-272-R-J2-PDC, 521955-158-R6-J3-PDC, and 521955-158-R2-J5-PDC; two uterine sarcomas: 327498-152-R-J2-PDC and 993429-296-R-J1-PDC; two rhabdomyosarcomas: 755483-174-R-J1-PDC and 772245-204-R-J1-PDC; two soft tissue sarcomas: 126254-015-R-J1-PDC and 494315-158-R-J1-PDC; two malignant fibrous histiocytomas: 317291-083-R-J1-PDC and 596521-263-R-J1-PDC; two breast carcinomas: 171881-019-R-J1-PDC and 885512-296-R-J2-PDC; and one ovarian carcinoma: 6556581-035-R-J-PDC were obtained from the NCI PDMR, (https://pdmr.cancer.gov). The established cell lines HSSY-2 synovial sarcoma (RRID:CVCL 8719), SYO-1 synovial sarcoma (RRID:CVCL_7146), MPNST malignant peripheral neural sheath tumor were obtained from the Sloan Kettering Institute. The following established cell lines were purchased from the American Type Culture Collection (ATCC, Manassas, VA), Sor the received from the NCI repository:, PANC-1 pancreatic carcinoma (CRL-1469, RRID:CVCL_0480), OVCAR-5 ovarian carcinoma (RRID:CVCL_1628), OVCAR-8 ovarian carcinoma (RRID:CVCL_1629), , MCF-7 breast carcinoma (CRL-12584, RRID:CVCL_0031), MDA-MB-231 breast carcinoma (CRL-12532, RRID:CVCL_0062), NCI-H1876 small cell lung carcinoma (CRL-5902, RRID:CVCL_1503), NCI-H510A small cell lung carcinoma (HTB-184, RRID:CVCL_1565), NCI-H1417 (CRL-5869, RRID:CVCL_1469), and NCI-H196 small cell lung carcinoma (CRL-5823, RRID:CVCL_1509). Dr. Peter Houghton (Greehey Children's Cancer Research Institute, University of Texas Health Science Center, San Antonio, TX) provided Rh-18 rhabdomyosarcoma (RRID:CVCL_1659). Pooled donor human umbilical vein endothelial cells (HUVEC, Lonza, cat. CC-2519) and human mesenchymal stem cells (hMSC, Lonza, cat. PT-2501) were purchased from Lonza (Walkersville, MD).
Cell Culture. […]
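Note: compound exposure lasted seven days after spheroids formed for three days.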
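Throughout, for viability, T/C: 100% = DMSO vehicle control wells.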

Compound: Cn1ncnc1[C@H]1c2n[nH]c(=O)c3cc(F)cc(c23)N[C@@H]1c1ccc(F)cc1 + CCN1C(C(=O)NC23CCC(C(=O)O)(CC2)CC3)C(c2cccc(Cl)c2F)C2(C(=O)Nc3cc(Cl)ccc32)C12CCCCC2
- IC50 (second compound 0.00949 µM): > 100 nM
- IC50 (second compound 0.03 µM): > 100 nM
- IC50 (second compound 0.0949 µM): > 100 nM
- IC50 (second compound 0.3 µM): > 100 nM
- IC50 (second compound 0.949 µM): > 100 nM
- IC50 (second compound 3 µM): > 100 nM
- viability, T/C (second compound 0.00949 µM, first compound 0.000316 µM): 108%
- viability, T/C (second compound 0.00949 µM, first compound 0.001 µM): 88.4%
- viability, T/C (second compound 0.00949 µM, first compound 0.00316 µM): 102%
- viability, T/C (second compound 0.00949 µM, first compound 0.01 µM): 100%
- viability, T/C (second compound 0.00949 µM, first compound 0.0316 µM): 81.9%
- viability, T/C (second compound 0.00949 µM, first compound 0.1 µM): 66.9%
- viability, T/C (second compound 0.03 µM, first compound 0.000316 µM): 99.6%
- viability, T/C (second compound 0.03 µM, first compound 0.001 µM): 107%
- viability, T/C (second compound 0.03 µM, first compound 0.00316 µM): 105%
- viability, T/C (second compound 0.03 µM, first compound 0.01 µM): 81.3%
- viability, T/C (second compound 0.03 µM, first compound 0.0316 µM): 76.1%
- viability, T/C (second compound 0.03 µM, first compound 0.1 µM): 87.3%
- viability, T/C (second compound 0.0949 µM, first compound 0.000316 µM): 95.3%
- viability, T/C (second compound 0.0949 µM, first compound 0.001 µM): 96%
- viability, T/C (second compound 0.0949 µM, first compound 0.00316 µM): 103%
- viability, T/C (second compound 0.0949 µM, first compound 0.01 µM): 86.3%
- viability, T/C (second compound 0.0949 µM, first compound 0.0316 µM): 77.6%
- viability, T/C (second compound 0.0949 µM, first compound 0.1 µM): 70.4%
- viability, T/C (second compound 0.3 µM, first compound 0.000316 µM): 106%
- viability, T/C (second compound 0.3 µM, first compound 0.001 µM): 101%
- viability, T/C (second compound 0.3 µM, first compound 0.00316 µM): 107%
- viability, T/C (second compound 0.3 µM, first compound 0.01 µM): 89.5%
- viability, T/C (second compound 0.3 µM, first compound 0.0316 µM): 73.9%
- viability, T/C (second compound 0.3 µM, first compound 0.1 µM): 64.6%
- viability, T/C (second compound 0.949 µM, first compound 0.000316 µM): 95.4%
- viability, T/C (second compound 0.949 µM, first compound 0.001 µM): 89.3%
- viability, T/C (second compound 0.949 µM, first compound 0.00316 µM): 103%
- viability, T/C (second compound 0.949 µM, first compound 0.01 µM): 93.6%
- viability, T/C (second compound 0.949 µM, first compound 0.0316 µM): 75.8%
- viability, T/C (second compound 0.949 µM, first compound 0.1 µM): 72.1%
- viability, T/C (second compound 3 µM, first compound 0.000316 µM): 82%
- viability, T/C (second compound 3 µM, first compound 0.001 µM): 69%
- viability, T/C (second compound 3 µM, first compound 0.00316 µM): 77.4%
- viability, T/C (second compound 3 µM, first compound 0.01 µM): 79.7%
- viability, T/C (second compound 3 µM, first compound 0.0316 µM): 65.1%
- viability, T/C (second compound 3 µM, first compound 0.1 µM): 62.7%
